Results on 13 molecules are retold here after US5116863A, “Dibenz[b,e]oxepin derivative and pharmaceutical compositions thereof” (Kyowa Hakko Kogyo Co., Ltd., priority 1986, dated 1992).

Where two headings read alike, the source gives them in different places.

Series [1] has as its system homologous PCA (passive cutaneous anaphlaxis) of rats. Put plainly: Homologous PCA (passive cutaneous anaphylaxis) test of rats for 48 hours, oral (antiallergic activity). Type of series: in vivo, Wistar male rats. As to conditions: for minimal effective dose / responders at 0.01 mg/kg / responders at 0.1 mg/kg / responders at 1 mg/kg / responders at 10 mg/kg / responders at 100 mg/kg / responders at 0.001 mg/kg: Rattus norvegicus; for minimal effective dose: read-out: MED (minimum effective dosage), PCA inhibition; for responders at 0.01 mg/kg / responders at 0.1 mg/kg / responders at 1 mg/kg / responders at 10 mg/kg / responders at 100 mg/kg / responders at 0.001 mg/kg: po; for responders at 0.01 mg/kg: dosage 0.01 mg/kg; for responders at 0.01 mg/kg / responders at 0.1 mg/kg / responders at 1 mg/kg / responders at 10 mg/kg / responders at 100 mg/kg / responders at 0.001 mg/kg / Number of positive zooids in one group of 3 zooids: positive = inhibition rate 50% or higher; for responders at 0.01 mg/kg / responders at 0.1 mg/kg / responders at 1 mg/kg / responders at 10 mg/kg / responders at 100 mg/kg: read-out: Number of positive zooids in one group of 3 zooids (converted); for responders at 10 mg/kg: dosage 10 mg/kg; for responders at 100 mg/kg: dosage 100 mg/kg; for responders at 0.001 mg/kg: dosage 0.001 mg/kg, read-out: Number of positive zooids in one group of 3 zooids. The procedure: Antiallergic activity was investigated by a homologous PCA (passive cutaneous anaphlaxis) of rats for 48 hours, where Wistar male rats having body weights of 180 to 220 g were used for sampling of antiserum and Wistar male rats having body weights of 120 to 140 g were used for the PCA test.
Anti-egg white albumin (EWA) rat serum was prepared according to Stotland and Share's method [Canad. J. Physiol. Pharmacol. 52, 1114 (1974)]. That is, 1 mg of EWA was mixed with 20 mg of aluminum hydroxide gel and 0.5 ml of mixed vaccine of pertussis, diphtheria and tetanus, and the mixture was subcutaneously administered in four portions into rat's footpad. After 14 days, blood was sampled from the carotid artery, and the serum was separated from the sampled blood, and preserved under freezing at -80° C. The potency of the antiserumin in the homologous PCA for 48 hours was 1:32.
Groups each consisting of 3 rats were used, and 0.05 ml of anti-EWA rat serum diluted with a physiological saline solution to 8 times as much was incutaneously injected each at two positions of depilated back to make the animals passively sensitised. After 47 hours, the compound of the present invention, or its solution (physiological saline solution or CMC solution) was orally administered. One hour thereafter, 0.5 ml/100 g of 1% Evan's blue physiological saline solution containing 2 mg of the antigen EWA was administered into the tail vein, and 30 minutes thereafter, the animals were sacrificed by exsanguination. Then, the skins were stripped and the amount of leaked pigment at the blue-dyed parts was measured according to the Katayama et al method [Microbiol. Immunol. 22, 89 (1978)]. That is, the blue-dyed parts were cut out by scissors, and placed in test tubes containing 1 ml of 1N KOH and incubated at 37° C. for 24 hours. Then, 9 ml of a mixture of 0.6N phosphoric acid and acetone (5:13) was added thereto, and the mixture was shaked and centrifuged at 2,500 rpm for 10 minutes. Absorbancy of the supernatant at […] was measured, and the amount of leaked pigment was quantitatively determined by the calibration curve prepared in advance. An average of measurements at the two position was made a value for one zooid, and inhibition rate for the individual zooid was calculated by the following formula: [formula]

Another series relates to dd, male mice. Type of series: in vivo. The procedure:
Groups each consisting of 3 dd, male mice having body weights of 20±1 g were used, and the compound of the present invention was administered orally (po: 300 mg/kg) or intraperitoneally (ip: 100 mg/kg).

A further series concerns Rat carageenin paw edema. Put plainly: Carageenin paw edema test (antiinflammatory activity). The series is classed as in vivo, Wistar male rats. As to conditions: average value in one group of 3 rats, 100 mg/kg oral administration. Here is the method:
Antiinflammatory activity was examined according to Rat carageenin paw edema [J. Pathol. 104, 15-29 (1971)], Groups each consisting of three Wistar male rats weighing 150 g were used. The test compound was suspended in 0.3% aqueous CMC solution and the suspension was given orally. Sixty minutes later, 0.1 ml of 0.1% carageenin was subcutaneously injected in a hind paw to form carageenin paw edema.
The volume of paw was measured before the administration and 3 hours after the administration of carageenin with plethysmometer.
The ratio of the volume 3 hours after the administration to that before the administration of carageenin was calculated and each ratio is compared with the ratio of control group (0.3% CMC was administered) to give the edema inhibiting percentage.

[2] abbreviates: minimum dosage with positive case in at least one of three rats.
Where [3] appears, read: mice, mortality 7 days after administration.

With `CN(C)CC/C=C1/c2ccccc2COc2ccc(CCC(=O)O)cc21` [Compound 28 (cis), Cis-3-[11-(3-dimethylaminopropylidene)-6,11-dihydrodibenz[b,e]oxepin-2-yl]-propionic acid], the minimal effective dose in series [1] (setting [2]) was found to be 0.1 mg/kg. Besides, in series [1], the responders at 0.01 mg/kg is 0%, the responders at 10 mg/kg was 66.7% and the responders at 100 mg/kg was 100%. The responders at 0.1 mg/kg in series [1] (dosage 0.1 mg/kg) is 33.3%. For the same molecule, in series [1] (dosage 1 mg/kg), the responders at 1 mg/kg is 100%. Further, in the series with dd, male mice (setting [3]), the “Acute toxicity (MLD), ip” value was over 100 mg/kg and the “Acute toxicity (MLD), po” value is recorded as over 300 mg/kg.

In the case of `CN(C)CC/C=C1\c2ccccc2COc2ccc(CCC(=O)O)cc21` [Compound 28 (trans), Trans-3-[11-(3-dimethylaminopropylidene)-6,11-dihydrodibenz[b,e]oxepin-2-yl]-propionic acid], in series [1] (setting [2]), the minimal effective dose amounted to 0.01 mg/kg. For the same molecule, in series [1], the responders at 0.001 mg/kg worked out at 0%, the responders at 0.01 mg/kg is 33.3%, the responders at 10 mg/kg is 100% and the responders at 100 mg/kg was 100%. In addition, in series [1] (dosage 0.1 mg/kg), the responders at 0.1 mg/kg was 66.7%. Further, the responders at 1 mg/kg in series [1] (dosage 1 mg/kg) was 66.7%. In the series on dd, male mice (setting [3]), the “Acute toxicity (MLD), ip” value is listed as over 100 mg/kg and the “Acute toxicity (MLD), po” value was over 300 mg/kg.

With `CN(C)CCC=C1c2ccccc2COc2ccc(CCC(=O)O)cc21` [Compound 28, 3-[11-(3-Dimethylaminopropylidene)-6,11-dihydrodibenz[b,e]oxepin-2-yl]-propionic acid], the minimal effective dose in series [1] (setting [2]) came out at 0.01 mg/kg. In series [1], the responders at 0.001 mg/kg worked out at 0%, the responders at 0.01 mg/kg is 66.7%, the responders at 10 mg/kg is 100% and the responders at 100 mg/kg was 100%. Also, the responders at 0.1 mg/kg in series [1] (dosage 0.1 mg/kg) is 66.7%. In addition, the responders at 1 mg/kg in series [1] (dosage 1 mg/kg) is 100%. Further, in the series with dd, male mice (setting [3]), the “Acute toxicity (MLD), ip” value was over 100 mg/kg and the “Acute toxicity (MLD), po” value is listed as over 300 mg/kg.

On to `CN(C)CC/C=C1/c2ccccc2COc2ccc(CCO)cc21` [Compound 31 (cis), Cis-11-(3-dimethylaminopropylidene)-2-(2-hydroxyethyl)-6,11-dihydrodibenz[b,e]oxepin], for which the minimal effective dose in series [1] (setting [2]) was determined as 0.1 mg/kg. In addition, in series [1], the responders at 0.001 mg/kg was 0%, the responders at 0.01 mg/kg was 0% and the responders at 10 mg/kg is 100%. In series [1] (dosage 0.1 mg/kg), the responders at 0.1 mg/kg is 66.7%. Also, the responders at 1 mg/kg in series [1] (dosage 1 mg/kg) was 100%. Moreover, in the series on dd, male mice (setting [3]), the “Acute toxicity (MLD), ip” value is reported as over 100 mg/kg and the “Acute toxicity (MLD), po” value is listed as 300 mg/kg.

For `CN(C)CC/C=C1\c2ccccc2COc2ccc(CCO)cc21` [Compound 31 (trans), Trans-11-(3-dimethylaminopropylidene)-2-(2-hydroxyethyl)-6,11-dihydrodibenz[b,e]oxepin], in series [1] (dosage 0.1 mg/kg), the “Number of positive zooids in one group of 3 zooids” value (shortened to “Number of positive zooids”) was 3/3. The “Number of positive zooids” value in series [1] (dosage 1 mg/kg) is 2/3. Besides, in series [1] (setting [2]), the “MED (minimum effective dosage), PCA inhibition” value was 0.1 mg/kg. Further, in the series with dd, male mice (setting [3]), the “Acute toxicity (MLD), ip” value is reported as over 100 mg/kg and the “Acute toxicity (MLD), po” value is over 300 mg/kg.

In the case of `CN(C)CC/C=C1\c2ccccc2COc2ccc(CCO)cc21` [Compound 31, 11-(3-Dimethylaminopropylidene)-2-(2-hydroxyethyl)-6,11-dihydrodibenz[b,e]oxepin], the minimal effective dose in series [1] (setting [2]) stood at 0.1 mg/kg. Moreover, in series [1], the responders at 0.01 mg/kg was 0%, the responders at 10 mg/kg is 100% and the responders at 100 mg/kg is 100%. In addition, the “Number of positive zooids” value in series [1] (dosage 0.1 mg/kg, listed as 31') is 1/3. For the same molecule, the “Number of positive zooids” value in series [1] (dosage 1 mg/kg, listed as 31') is recorded as 3/3. Moreover, in the series on dd, male mice (mouse, in vivo, 10080 min), the “Acute toxicity (MLD), ip” value is listed as over 100 mg/kg and the “Acute toxicity (MLD), po” value was over 300 mg/kg.

Take `CCN(CC)CCN=C1c2ccccc2COc2ccc(C(=O)O)cc21` [Compound 35, 11-(2-Diethylaminoethyl)imino-6,11-dihydrodibenz[b,e]oxepin-2-carboxylic acid]: the minimal effective dose in series [1] (setting [2]) stood at 10 mg/kg. Also, the responders at 1 mg/kg in series [1] (dosage 1 mg/kg) was 0%. Moreover, in series [1], the responders at 10 mg/kg is 33.3% and the responders at 100 mg/kg was 100%. Moreover, in the series on dd, male mice (setting [3]), the “Acute toxicity (MLD), ip” value is over 100 mg/kg and the “Acute toxicity (MLD), po” value is reported as over 300 mg/kg.

For `CCN(CC)CCN=C1c2ccccc2COc2ccc(CCC(=O)O)cc21` [Compound 43, 3-[11-(2-Diethylaminoethyl)imino-6,11-dihydrodibenz[b,e]oxepin-2-yl]-propionic acid], in series [1] (setting [2]), the minimal effective dose stood at 10 mg/kg. Further, in series [1] (dosage 0.1 mg/kg), the responders at 0.1 mg/kg was 0%. For the same molecule, the responders at 1 mg/kg in series [1] (dosage 1 mg/kg) was 0%. In series [1], the responders at 10 mg/kg is 66.7% and the responders at 100 mg/kg was 100%. For the same molecule, in the series on dd, male mice (setting [3]), the “Acute toxicity (MLD), ip” value is recorded as over 100 mg/kg and the “Acute toxicity (MLD), po” value was over 300 mg/kg.

Turning to `CN(C)CCN=C1c2ccccc2COc2cc(CC(=O)O)ccc21` [Compound 47, 11-(2-Dimethylaminoethyl)imino-6,11-dihydrodibenz[b,e]oxepin-3-acetic acid], the “Carageenin paw edema inhibiting percentage” value in the series with Rat carageenin paw edema amounted to 46.0%.

In the case of `CN(C)CCCN=C1c2ccccc2COc2cc(CC(=O)O)ccc21` [Compound 49, 11-(3-Dimethylaminopropyl)imino-6,11-dihydrodibenz[b,e]oxepin-3-acetic acid], in the series with Rat carageenin paw edema, the “Carageenin paw edema inhibiting percentage” value was 24.1%.

Turning to `O=C(O)c1ccc2c(c1)C(=CCCN1CCOCC1)c1ccccc1CO2` [Compound 56, 11-(3-Morpholinopropylidene)-6,11-dihydrodibenz[b,e]-oxepin-2-carboxylic acid], the minimal effective dose in series [1] (setting [2]) came to 0.1 mg/kg. Moreover, in series [1], the responders at 0.01 mg/kg was 0%, the responders at 10 mg/kg was 100% and the responders at 100 mg/kg was 100%. In series [1] (dosage 0.1 mg/kg), the responders at 0.1 mg/kg was 33.3%. For the same molecule, the responders at 1 mg/kg in series [1] (dosage 1 mg/kg) was 100%. Besides, in the series on dd, male mice (setting [3]), the “Acute toxicity (MLD), ip” value is over 100 mg/kg and the “Acute toxicity (MLD), po” value was over 300 mg/kg.

With `O=C(O)c1ccc2c(c1)C(=CCCN1CCSCC1)c1ccccc1CO2` [Compound 58, 11-(3-Thiomorpholinopropylidene)-6,11-dihydrodibenz[b,e]oxepin-2-carboxylicacid], the minimal effective dose in series [1] (setting [2]) is 1 mg/kg. Further, in series [1] (dosage 0.1 mg/kg), the responders at 0.1 mg/kg is 0%. The responders at 1 mg/kg in series [1] (dosage 1 mg/kg) is 100%. In series [1], the responders at 10 mg/kg was 100% and the responders at 100 mg/kg is 100%. For the same molecule, in the series with dd, male mice (setting [3]), the “Acute toxicity (MLD), ip” value is over 100 mg/kg and the “Acute toxicity (MLD), po” value is on record as over 300 mg/kg.

For `CN(C)CC/C=C1/c2ccccc2COc2ccc(/C=C/C(=O)O)cc21` [Compound 60, Trans-3-[11-(3-dimethylaminopropylidene)-6,11-dihydrodibenz[b,e]oxepin-2-yl]-acrylic acid], the minimal effective dose in series [1] (setting [2]) was determined as 0.1 mg/kg. Moreover, in series [1], the responders at 0.01 mg/kg was 0%, the responders at 10 mg/kg was 100% and the responders at 100 mg/kg was 100%. The responders at 0.1 mg/kg in series [1] (dosage 0.1 mg/kg) is 33.3%. The responders at 1 mg/kg in series [1] (dosage 1 mg/kg) was 66.7%. Further, in the series on dd, male mice (setting [3]), the “Acute toxicity (MLD), ip” value is reported as over 100 mg/kg and the “Acute toxicity (MLD), po” value is given as over 300 mg/kg.
